Tests used:
[1] = target: ROCK2 (Homo sapiens, UniProt O75116); experiment: ROCK2 kinase IC50, HTRF KinEASE-STK S2 kit; format: biochemical; conditions: 2 hours at room temperature
Experimental: (§1) The kinase IC50 was determined by a commercialized CISBIO kinase detection kit, HTRF KinEASE-STK S2 kit (62ST2PEC). ROCK2 (01-119) employed in the reaction was purchased from Carna Biosciences.
(§2) Before the assay, the following working solutions as needed were formulated with corresponding reagents according to the instruction of the kinase detection kit: 1×kinase buffer, 5×STK-S2 substrate working solution (1.5 μM) and 5×ATP working solution (1.5 μM), 5×ROCK2 kinase working solution, 4×Streptavidin-XL665 working solution, and 4×STK-Ab-Cryptate 2 detection solution. Then the assay was performed according to the following procedure.
(§3) A solution of a compound at a concentration of 10000 nM was prepared with the 1×kinase buffer containing 2.5% DMSO. Gradient dilution of the solution of the compound was performed with the kinase buffer containing DMSO, so as to obtain solutions of a test compound at 9 different concentrations. In addition to wells of test compounds, a positive well (containing all the reagents except the compound) and a negative well (containing all the reagents except the test compound and kinase) were set. Except for the control wells (positive and negative wells), a solution of a test compound (4 μL) was added to each of the reaction wells, and a solution of 2.5% DMSO was added to the control wells. Then the substrate (2 μM, i.e., 2 μL 5×STK-S2 substrate working solution) was added to each of the reaction wells. The 5×ROCK2 kinase working solution (2 μL, containing 1.4 ng ROCK2 kinase) was added to each of the reaction wells except for the negative well, the volume of which was made up with the 1×kinase buffer (2 μL). The 5×ATP working solution (2 μL) was added to each of the reaction wells, and the mixtures were incubated at room temperature for 2 hours. After the kinase reaction was complete, the 4×Streptavidin-XL665 working solution was added to each of the reaction wells, the solutions were mixed, followed by immediate addition of the 4×STK-Ab-Cryptate 2 detection solution (5 μL), and the mixtures were incubated at room temperature for 1 hour. The fluorescence signal was read on ENVISION (Perkinelmer) (excitation wavelength: 320 inn, and emission wavelength: 665 nm and 615 nm). The inhibitory rate in each well was calculated based on the fluorescence intensity value: ER (Emission Ratio)_(fluorescence intensity at 665 nm/fluorescence intensity at 615 nm); inhibitory rate=(ERpositive−ERtest compound)/(ERpositive−ERnegative)*100%. Curves were plotted and fitted to obtain the median inhibitory concentration (IC50) of each teat compound with the PRISM 5.0 software. According to a biological test method similar to the above, the IC50 values of the compounds on ROCK1 were also tested.

[2] = target: ROCK1 (Homo sapiens (Human), UniProt Q13464); experiment: ROCK1 kinase IC50, biological test method similar to ROCK2 assay; format: biochemical
Chain of ROCK1 (Q13464 whole entry, species assumed): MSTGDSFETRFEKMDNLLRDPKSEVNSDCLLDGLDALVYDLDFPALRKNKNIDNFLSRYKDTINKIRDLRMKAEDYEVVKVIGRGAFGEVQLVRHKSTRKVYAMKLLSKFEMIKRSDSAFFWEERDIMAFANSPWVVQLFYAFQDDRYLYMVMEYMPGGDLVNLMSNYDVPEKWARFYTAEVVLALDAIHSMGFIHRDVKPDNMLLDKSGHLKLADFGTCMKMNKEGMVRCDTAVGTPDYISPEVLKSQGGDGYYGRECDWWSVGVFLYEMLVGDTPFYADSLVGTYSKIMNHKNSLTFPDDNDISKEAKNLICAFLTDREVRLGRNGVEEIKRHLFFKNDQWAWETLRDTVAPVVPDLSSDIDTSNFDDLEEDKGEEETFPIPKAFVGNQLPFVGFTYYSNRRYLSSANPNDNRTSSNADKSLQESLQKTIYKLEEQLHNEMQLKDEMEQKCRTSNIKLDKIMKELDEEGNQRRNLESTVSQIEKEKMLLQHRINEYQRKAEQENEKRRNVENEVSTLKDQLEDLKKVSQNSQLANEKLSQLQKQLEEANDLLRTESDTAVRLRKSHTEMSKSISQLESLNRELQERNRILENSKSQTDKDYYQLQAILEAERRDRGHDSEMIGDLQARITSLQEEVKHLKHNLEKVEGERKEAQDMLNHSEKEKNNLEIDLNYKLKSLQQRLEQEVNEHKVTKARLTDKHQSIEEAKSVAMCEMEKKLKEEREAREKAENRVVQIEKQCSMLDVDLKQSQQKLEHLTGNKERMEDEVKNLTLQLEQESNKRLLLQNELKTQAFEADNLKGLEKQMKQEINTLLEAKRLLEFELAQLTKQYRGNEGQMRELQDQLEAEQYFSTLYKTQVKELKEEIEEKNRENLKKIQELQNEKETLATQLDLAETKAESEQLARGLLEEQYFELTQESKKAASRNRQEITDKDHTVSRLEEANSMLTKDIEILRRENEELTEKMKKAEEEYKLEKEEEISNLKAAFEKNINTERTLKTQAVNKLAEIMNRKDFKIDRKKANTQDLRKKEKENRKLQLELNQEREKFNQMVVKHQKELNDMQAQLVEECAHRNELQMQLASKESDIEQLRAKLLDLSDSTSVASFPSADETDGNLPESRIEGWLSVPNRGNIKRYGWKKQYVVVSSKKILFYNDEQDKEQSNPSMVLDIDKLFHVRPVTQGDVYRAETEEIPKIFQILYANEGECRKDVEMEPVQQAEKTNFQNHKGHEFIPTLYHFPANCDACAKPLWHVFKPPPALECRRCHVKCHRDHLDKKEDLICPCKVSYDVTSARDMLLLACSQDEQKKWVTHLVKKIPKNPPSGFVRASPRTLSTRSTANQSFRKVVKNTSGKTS
Experimental: as §1, §2, §3

Chain of ROCK2 (O75116 whole entry, looked up): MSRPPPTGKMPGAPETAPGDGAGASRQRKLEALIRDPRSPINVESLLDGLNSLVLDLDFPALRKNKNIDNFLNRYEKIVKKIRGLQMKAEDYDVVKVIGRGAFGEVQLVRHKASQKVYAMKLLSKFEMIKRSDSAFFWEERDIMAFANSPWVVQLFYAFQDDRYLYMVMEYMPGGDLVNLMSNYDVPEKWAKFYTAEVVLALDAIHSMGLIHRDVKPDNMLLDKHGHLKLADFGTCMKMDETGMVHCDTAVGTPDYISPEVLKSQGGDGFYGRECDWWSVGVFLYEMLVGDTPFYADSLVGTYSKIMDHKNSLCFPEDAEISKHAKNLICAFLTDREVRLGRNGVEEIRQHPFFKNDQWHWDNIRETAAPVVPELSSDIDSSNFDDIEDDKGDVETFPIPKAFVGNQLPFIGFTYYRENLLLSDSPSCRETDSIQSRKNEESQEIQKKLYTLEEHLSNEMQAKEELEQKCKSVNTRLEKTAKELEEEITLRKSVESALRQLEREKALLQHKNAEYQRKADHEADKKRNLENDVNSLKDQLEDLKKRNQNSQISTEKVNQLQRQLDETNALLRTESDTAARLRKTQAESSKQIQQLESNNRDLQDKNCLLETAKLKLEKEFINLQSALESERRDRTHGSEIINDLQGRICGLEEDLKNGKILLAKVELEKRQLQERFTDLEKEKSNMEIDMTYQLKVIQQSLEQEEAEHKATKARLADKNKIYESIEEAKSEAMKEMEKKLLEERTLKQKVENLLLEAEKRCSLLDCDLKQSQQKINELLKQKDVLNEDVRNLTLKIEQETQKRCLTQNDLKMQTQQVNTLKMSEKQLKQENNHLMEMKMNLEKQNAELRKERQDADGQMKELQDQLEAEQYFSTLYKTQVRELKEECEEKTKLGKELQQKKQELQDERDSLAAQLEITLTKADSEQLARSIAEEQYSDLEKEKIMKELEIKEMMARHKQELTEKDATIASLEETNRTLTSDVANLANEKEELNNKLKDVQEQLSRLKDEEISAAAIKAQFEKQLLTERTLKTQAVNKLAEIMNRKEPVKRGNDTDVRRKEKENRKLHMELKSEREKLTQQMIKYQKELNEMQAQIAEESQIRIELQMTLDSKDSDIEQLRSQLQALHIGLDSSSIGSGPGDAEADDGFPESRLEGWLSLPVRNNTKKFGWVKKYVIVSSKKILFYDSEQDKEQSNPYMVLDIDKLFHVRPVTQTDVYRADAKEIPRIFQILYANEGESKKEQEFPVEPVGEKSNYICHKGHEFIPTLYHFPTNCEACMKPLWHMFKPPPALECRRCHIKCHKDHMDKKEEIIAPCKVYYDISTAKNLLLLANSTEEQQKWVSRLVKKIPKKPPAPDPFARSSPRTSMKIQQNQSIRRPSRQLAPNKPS

Compound	IC50 [1] [nM]	IC50 [2] [nM]
O=C(c1ccc2c(c1)CN(c1nccc(Nc3ccc4c(=O)[nH]ccc4c3)n1)C2)N1CC(F)(F)C1 [C1, 6-((2-(5-(3,3-difluoroazetidine-1-carbonyl)isoindolin-2-yl)pyrimidin-4-yl)amino)isoquinolin-1(2H)-one]	129	> 10000
O=C1NCc2cc(Nc3nc(-c4ccc5c(c4)CN(C(=O)C4CC(F)(F)C4)C5)ncc3F)ccc21 [C3, 5-((2-(2-(3,3-difluoroo-cyclobutane-1-carbonyl)isoindolin-5-yl)-5-fluoro-pyrimidin-4-yl)amino) isoindolin-1-one]	287	> 10000
O=C(C1CC(F)(F)C1)N1Cc2ccc(-c3ncc(F)c(Nc4ccc5c(=O)[nH]cc(Cl)c5c4)n3)cc2C1 [C5, 4-chloro-6-((2-(2-(3,3-difluoroo-cyclobutane-1-carbonyl)isoindolin-5-yl)-5-fluoro-pyrimidin-4-yl)amino) isoquinolin-1(2H)-one]	13	> 10000
O=C(C1CC(F)(F)C1)N1Cc2ccc(-c3ncc(F)c(Nc4ccc5c(=O)[nH]cnc5c4)n3)cc2C1 [C6, 7-((2-(2-(3,3-difluoroo-cyclobutane-1-carbonyl)isoindolin-5-yl)-5-fluoro-pyrimidin-4-yl)amino) quinazolin-4(3H)-one]	76	> 10000
O=C(C1CC(F)(F)C1)N1Cc2ccc(-c3ncc(F)c(Nc4ccc5c(=O)[nH]ccc5c4)n3)cc2C1 [C8, 6-((2-(2-(3,3-difluoroo-cyclobutane-l-carbonyl)isoindolin-5-yl)-5-fluoro-pyrimidin-4-yl)amino) isoquinolin-1(2H)-one]	16	> 10000
O=C(c1cc2ccc(-c3ncc(F)c(Nc4ccc5c(=O)[nH]ccc5c4)n3)cc2[nH]1)N1CC(F)(F)C1 [C9, 6-((2-(2-(3,3-difluoroazetidine-1-carbonyl)-1H-indol-6-yl)-5-fluoropyrimidin-4-yl)amino)isoquinolin-1(2H)-one]	4	> 10000
O=C(OC1CC(F)(F)C1)N1Cc2ccc(-c3ncc(F)c(Nc4ccc5c(=O)[nH]ccc5c4)n3)cc2C1 [C10, 3,3-difluorocyclobutyl 5-(5-fluoro-4-((1-oxo-1,2-dihydroisoquinolin-6-yl)amino)pyrimidin-2-yl)isoindoline-2-carboxylate]	11	> 10000
CC(C)(C)OC(=O)N1Cc2ccc(-c3ncc(F)c(Nc4ccc5c(=O)[nH]ccc5c4)n3)cc2C1 [C11, tert-butyl 5-(5-fluoro-4-((1-oxo-1,2-dihydro-isoquinolin-6-yl)amino)pyrimiclin-2-yl) isoindoline-2-carboxylate]	34	> 10000
O=C(C1CC(F)(F)C1)N1Cc2ccc(-c3ncc(F)c(Nc4ccc5c(=O)[nH]ncc5c4)n3)cc2C1 [C12, 6-((2-(2-(3,3-difluoroo-cyclobutane-1-carbonyl)isoindolin-5-yl)-5-fluoro-pyrimidin-4-yl)amino) phthalazin-1(2H)-one]	17	> 10000
O=C(C1CCC(F)(F)CC1)N1Cc2ccc(-c3ncc(F)c(Nc4ccc5c(=O)[nH]ccc5c4)n3)cc2C1 [C13, 6-((2-(2-(4,4-difluorocyclohexane-1-carbonyl)isoindolin-5-yl)-5-fluoropyrimidin-4-yl)amino)isoquinolin-1(2H)-one]	38	> 10000
O=C1NCCc2cc(Nc3nc(-c4ccc5c(c4)CN(C(=O)OC4CC(F)(F)C4)C5)ncc3F)ccc21 [C14, 3,3-difluoro-cyclobutyl 5-(5-fluoro-4-((1-oxo-1,2,3,4-tetrahydro-isoquinolin-6-yl)amino)pyrimidin-2-yl) isoindoline-2-carboxylate]	28	> 10000
O=C(C1CC(F)(F)C1)N1CCc2cc(-c3ncc(F)c(Nc4ccc5c(=O)[nH]ccc5c4)n3)ccc21 [C15, 6-((2-(1-(3,3-difluoroo-cyclobutane-1-carbonyl)indolin-5-yl)-5-fluoro-pyrimidin-4-yl)amino) isoquinolin-1-(2H)-one]	79	> 10000
O=C(OC1CC(F)(F)C1)N1CCc2cc(-c3ncc(F)c(Nc4ccc5c(=O)[nH]ccc5c4)n3)ccc21 [C16]	19	> 10000
CC(C)(C)OC(=O)N1CCc2cc(-c3ncc(F)c(Nc4ccc5c(=O)[nH]ccc5c4)n3)ccc21 [C17]	421	> 10000
CC(OC(=O)N1Cc2ccc(-c3ncc(F)c(Nc4ccc5c(=O)[nH]ccc5c4)n3)cc2C1)C(F)(F)F (centres unmarked) [C18, 1,1,1-trifluoro-propan-2-yl 5-(5-fluoro-4-((1-oxo-1,2-dihydro-isoquinolin-6-yl)amino)pyrimidin-2-yl) isoindoline-2-carboxylate]	31	> 10000
O=C(OC1CCOC1)N1Cc2ccc(-c3ncc(F)c(Nc4ccc5c(=O)[nH]ccc5c4)n3)cc2C1 (centres unmarked) [C19, tetra-hydrofuran-3-yl 5-(5-fluoro-4-((1-oxo-1,2-dihydro-isoquinolin-6-yl)amino)pyrimidin-2-yl) isoindoline-2-carboxylate]	25	> 10000
COCn1c(C(=O)N2CC(F)(F)C2)cc2ccc(-c3ncc(F)c(Nc4ccc5c(=O)[nH]ccc5c4)n3)cc21 [C20, 6-((2-(2-(3,3-difluoro-azetidine-1-carbonyl)-1-(methoxy-methyl)-1H-indol-6-yl)-5-fluoro-pyrimidin-4-yl)amino) isoquinolin-1(2H)-one]	238	> 10000
COCn1c(C(=O)N2CC(F)(F)C2)cc2ccc(-c3nccc(Nc4ccc5c(=O)[nH]ccc5c4)n3)cc21 [C21, 6-((2-(2-(3,3-difluoro-azetidine-1-carbonyl)-1-(methoxy-methyl)-1H-indol-6-yl)pyrimidin-4-yl)amino) isoquinolin-1(2H)-one]	108	> 10000
COCn1c(C(=O)N2CC(F)(F)C2)cc2ccc(-c3ncnc(Nc4ccc5c(=O)[nH]ccc5c4)n3)cc21 [C22, 6-((4(2-(3,3-difluoro-azetidine-1-carbonyl)-1-(methoxy-methyl)-1H-indol-6-yl)-1,3,5-triazin-2-yl)amino) isoquinolin-1(2H)-one]	130	> 10000
O=C(OC1CC(F)(F)C1)N1CCc2cc(-c3ncc(F)c(Nc4ccc5c(=O)[nH]ccc5c4)n3)ccc2C1 [C23, 3,3-difluoro-cyclobutyl 6-(5-fluoro-4-((1-oxo-1,2-dihydro-isoquinolin-6-yl)amino)pyrimidin-2-yl)-3,4-dihydro-isoquinolin-2(1H)-carboxylate]	173	> 10000
CC(C)(C)OC(=O)N1CCc2cc(-c3ncc(F)c(Nc4ccc5c(=O)[nH]ccc5c4)n3)ccc2C1 [C24, tert-butyl 6-(5-fluoro-4-((1-oxo-1,2-dihydro-isoquinolin-6-yl)amino)pyrimidin-2-yl)-3,4-dihydro-isoquinolin-2(1H)-carboxylate]	222	> 10000
O=C(OC1CC(F)(F)C1)N1CCc2cc(-c3nccc(Nc4ccc5c(=O)[nH]ccc5c4)n3)ccc2C1 [C25, 3,3-difluoro-cyclobutyl 6-(4-((1-oxo-1,2-dihydro-isoquinolin-6-yl)amino)pyrimidin-2-yl)-3,4-dihydro-isoquinolin-2(1H)-carboxylate]	45	> 10000
O=C(OC1CCC1)N1CCc2cc(-c3ncc(F)c(Nc4ccc5c(=O)[nH]ccc5c4)n3)ccc2C1 [C26, cyclobutyl 6-(5-fluoro-4-((1-oxo-1,2-dihydro-isoquinolin-6-yl)amino)pyrimidin-2-yl)-3,4-dihydro-isoquinolin-2(1H)-carboxylate]	356	> 10000
O=C(OC1CC(F)(F)C1)N1CCc2sc(-c3ncc(F)c(Nc4ccc5c(=O)[nH]ccc5c4)n3)cc2C1 [C27, 3,3-difluorocyclobutyl 2-(5-fluoro-4-((1-oxo-1,2-dihydroisoquinolin-6-yl)amino)pyrimidin-2-yl)-6,7-dihydrothieno[3,2-c]pyridine-5(4H)-carboxylate]	8	> 10000
O=C1NCc2cc(Nc3nc(-c4ccc5c(c4)CN(C(=O)OC4CC(F)(F)C4)C5)ncc3F)ccc21 [C30, 3,3-difluoro-cyclobutyl 5-(5-fluoro-4-((1-oxo-isoindolin-5-yl)amino)pyrimidin-2-yl) isoindoline-2-carboxylate]	216	> 10000

Reference: patent US12398118B2, “Rho-associated protein kinase inhibitor, pharmaceutical composition comprising same, and use thereof” (BEIJING TIDE PHARMACEUTICAL CO., LTD., priority 2018, dated 2025)
